The source of these data is patent publication US20080193563A1, “HARNESSING WNT SIGNALING TO RESTRICT HIV REPLICATION” (priority 2006, published 2008).

One assay deals with HIV-Bal in HFA. Nature of the assay: Cytokine pre-stimulation and HIV-Bal replication in human fetal astrocytes, p24 ELISA. In kind it is cell-based. To be noted: 24 h pre-stimulation, p24 day 7. The protocol: U87MG (A) and HFA (B) were pre-stimulated with increasing doses of either GM-CSF or IFNγ for 24 h followed by HIV-BAL infection for 24 hours. HIV replication was determined by measuring HIV p24 levels by ELISA seven days post-infection. The dotted line represents basal level of HIV infection of astrocytes without cytokine pre-treatment. Data is representative of three experiments performed in quadruplicate. Error bars represent standard deviations of the mean. Asterisks denote significant values (p<0.05) in comparison to untreated cultures as evaluated by analysis of variance.
To determine if pre-stimulation of astrocytes primes astrocytes, for productive HIV infection, U87MG and HFA were pre-treated for 24 hours with TNFγ, GM-CSF, or IFNγ at various concentrations (0-1000 ng/ml) then infected with HIV-Bal at 10 ng of HIV p24/1×10^6 cells for 24 hours. The cells were then washed extensively or trypsinized to remove bound virus and propagated in the presence of the respective cytokine concentration. HIV infection was monitored by p24 ELISA seven days post-infection. […]
IFN-γ Treatment and HIV Infection. […] HIV infection was monitored at day 7 postinfection by measuring p24 levels by conventional enzyme-linked immunosorbent assay (ELISA) (National Cancer Institute, Frederick, Md.).
(In general: An ELISA detects its analyte on a solid surface through an enzyme-linked reagent.)

Assay [1] has as its system HIV reverse transcription in U87MG. Nature of the assay: Early and late HIV reverse transcription in U87MG, real-time PCR. The assay is classed as cell-based. To be noted: IFNγ pre-treated 24 h. The protocol: FIG. 31 Comparative analysis of early and late HIV reverse transcription (RT) between infected untreated and infected IFN-γ treated astrocytes. U87MG cells were left untreated or treated with IFN-γ prior to HIV infection as described in Materials and Methods. Total DNA was isolated and amplified for tierh early HIV reverse transcription (reverse transcription initiation) using primer pair R and U5 at 24 h postinfection or late HIV transcription using primer pair R and 5NC at 96 h postinfection. (A) Comparison of amplified HIV DNA between untreated and IFN-γ-treated cultures. […] Rn stands for reading normalized, which equals the SyberGreen value divided by the ROX reference dye value.
Restriction to HIV replication is not at the level of HIV entry and reverse transcription. […] Early HIV reverse transcription was evaluated by real-time PCR at […] post-infection by amplifying with the R/U5 primer pairs, which detect negative-strand “strong-stop” DNA indicative of reverse transcription initiation. […]
Levels of HIV reverse transcription are similar between untreated and IFN-γ-treated astrocytes. […] Early HIV reverse transcription was evaluated by real-time PCR at 24 h postinfection by amplification with the R/U5 primer pair, which detects negative-strand “strong-stop” DNA indicative of reverse transcription initiation). […]
Background: Quantitative PCR measures a nucleic acid by following its amplification.

In the case of “IFNγ: cytokine secreted by lymphocytes, activated microglia and astrocytes; used to prime astrocytes”, in the assay with HIV-Bal in HFA, the “Induction of HIV replication” value is 2 fold. Further, in assay [1], the “Early HIV reverse transcription DNA (R/U5) vs untreated” value was “similar” and the “Late HIV reverse transcription DNA (R/5NC) vs untreated” value is given as “similar”.
